Target: Glutamate receptor 2 (Homo sapiens, UniProt P42262)
Assay: Positive allosteric modulation of GluA2Q flop isoform (unknown origin) expressed in HEK293 cells assessed as increase in L-glutamate induced calcium flux after 1 hr by fluo-4AM dye-based fluorescence assay

Glutamate receptor 2, sequence (P42262 whole entry, canonical isoform): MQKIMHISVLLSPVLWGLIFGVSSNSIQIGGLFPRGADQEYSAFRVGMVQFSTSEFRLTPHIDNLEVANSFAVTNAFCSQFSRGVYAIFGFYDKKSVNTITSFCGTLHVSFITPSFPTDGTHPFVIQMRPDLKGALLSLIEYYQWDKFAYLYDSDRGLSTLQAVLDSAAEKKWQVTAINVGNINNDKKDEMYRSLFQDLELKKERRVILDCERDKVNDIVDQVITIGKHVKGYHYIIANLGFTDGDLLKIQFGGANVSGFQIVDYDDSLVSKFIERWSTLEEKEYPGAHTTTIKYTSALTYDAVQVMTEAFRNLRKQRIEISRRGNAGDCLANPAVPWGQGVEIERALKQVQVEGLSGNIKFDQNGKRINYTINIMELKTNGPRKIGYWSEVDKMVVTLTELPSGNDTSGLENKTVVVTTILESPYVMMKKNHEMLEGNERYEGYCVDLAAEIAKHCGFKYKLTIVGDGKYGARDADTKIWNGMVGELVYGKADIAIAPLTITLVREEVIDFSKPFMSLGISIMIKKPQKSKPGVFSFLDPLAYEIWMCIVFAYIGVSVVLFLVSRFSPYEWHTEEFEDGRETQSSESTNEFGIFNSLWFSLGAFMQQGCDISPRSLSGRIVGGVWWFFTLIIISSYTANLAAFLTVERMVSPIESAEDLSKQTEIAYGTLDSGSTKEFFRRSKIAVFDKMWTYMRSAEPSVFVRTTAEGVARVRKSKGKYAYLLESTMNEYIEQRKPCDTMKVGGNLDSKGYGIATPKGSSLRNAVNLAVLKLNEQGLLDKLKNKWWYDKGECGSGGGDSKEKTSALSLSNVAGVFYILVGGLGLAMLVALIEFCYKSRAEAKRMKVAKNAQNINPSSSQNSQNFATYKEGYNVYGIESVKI

O=S1(=O)NCN(C2CC2)c2cc(CCc3ccc4c(c3)N(C3CC3)CNS4(=O)=O)ccc21
EC50: 1.3 nM

Reference: BindingDB's records for doi:10.1021/acs.jmedchem.8b00250 (University of Liege, 2018)
